Measured values: patent publication US12702660B2, “Method for treating cancer with an oral dosage form of an estrogen receptor-alpha inhibitor” (Eisai R&D Management Co., Ltd., priority 2019, dated 2026)
Like-named read-outs stand apart in the source and are kept apart here.

Assay: Plasma PK of H3B-6545 capsules in fasted patients, phase 1 dose escalation
Format: in vivo, human
Settings: for Tlag: Median (Min, Max)
Method: Blood samples were collected at the planned time points from each patient and centrifuged. The plasma portion of each sample was then transferred to a K2EDTA tube, which was then shipped to a bioanalytical lab for concentration measurement using LC-MS/MS. The concentration data were then analyzed using Phoenix® WinNonlin software to obtain PK parameters. The obtained PK parameters were further summarized using analytical software.
Blood samples (approximately 5 mL each) were collected from human patients pre-dose and at various hourly time points post-dose. Plasma concentrations of H3B-6545 were determined using a validated high-performance liquid chromatography/tandem mass spectrometry (LC-MS/MS) method. The lower limit of quantification was 0.100 ng/mL.
The PK Analysis Set included subjects who received H3B-6545 drug product in capsules or tablets and had sufficient evaluable plasma concentration data to derive at least 1 primary PK parameter in each treatment. Plasma concentrations of H3B-6545 (as free base) were tabulated and summarized at each nominal time using descriptive statistics (number of subjects, arithmetic mean with standard deviation [SD], coefficient of variation [CV %], geometric mean, median, minimum, and maximum) as appropriate. Individual and mean (±SD) plasma concentration-time profiles were provided for each treatment.
Pharmacokinetic parameters of H3B-6545 were calculated using noncompartmental methods, using an appropriate model for plasma data and extravascular administration. The PK parameters included, but were not limited to, area under the curve to the time of the last quantifiable concentration (AUC0-t), maximum concentration (Cmax), and time at which the maximum concentration occurred (tmax). If data permitted, the area under the plasma concentration-time curve extrapolated to infinity (AUC0-inf), terminal elimination half-life (t1/2), apparent total body clearance (CL/F), total systemic clearance after oral administration at steady state (CLss/F), apparent volume of distribution during the terminal phase (Vz/F), apparent steady-state volume of distribution (Vss), accumulation ratio for Cmax (RCmax) and accumulation ratio of AUC0-24 (RAUC) were also derived.
Methods were used to analyze whether H3B-6545 inactivates both wild-type and mutant ERα by targeting cysteine 530 and enforcing a unique antagonist conformation. Methods: Women with locally advanced or metastatic HR+BC are treated (tx) with H3B-6545 drug product administered once daily orally by capsule over a 28 day cycle after progression on at least one hormonal therapy and at least one additional therapy/regimen. Dose escalation uses a 3+3 design with the option to backfill previously cleared doses and allows for intrapatient dose escalation. This example explored the safety, pharmacokinetics and pharmacodynamics of H3B-6545 in women with HR+BC to identify a recommended subsequent dose for testing.
• H3B-6545 administered once daily orally over a 28 day cycle. • Dose escalation using a standard 3+3 study design using dose cohorts of 100, 200, 300, 450, and 600 mg QD. • Patients allowed to backfill previously cleared doses. • Intra-patient dose escalation allowed after completion of Cycle 3. Results (as of Apr. 20, 2019) Patient Population: • 46 patients were treated with H3B-6545 at doses of 100 to 600 mg QD. • 42 (91.3%) patients received a prior CDK4/6 inhibitor and 32 (69.6%) prior fulvestrant. • 30 (65.2%) patients received ≥3 prior anti-cancer therapy lines in the advanced/metastatic setting.
The clinical trial of Example 3 was continued and PK evaluations (of this Example 4) were made at a later date on the basis of a larger patient population. The summary of Tables 1 in Analysis of Pharmacokinetic (PK) of Capsules in Fasted Patients and 2 show PK parameters and profiles of human patients receiving capsules of H3B-6545 drug product prepared as in Example 1. […]

[1] = Cycle 1 Day 15, 100 mg QD capsules, fasted patients, Geometric Mean (GeoCV %)
[2] = Cycle 1 Day 15, 100 mg QD capsules, fasted patients, normalized from Table 11
[3] = Cycle 1 Day 15, 200 mg QD capsules, fasted patients, Geometric Mean (GeoCV %)
[4] = Cycle 1 Day 15, 200 mg QD capsules, fasted patients, normalized from Table 11
[5] = Cycle 1 Day 15, 300 mg QD capsules, fasted patients, Geometric Mean (GeoCV %)
[6] = Cycle 1 Day 15, 300 mg QD capsules, fasted patients, normalized from Table 11
[7] = Cycle 1 Day 15, 450 mg QD capsules, fasted patients, Geometric Mean (GeoCV %)
[8] = Cycle 1 Day 15, 450 mg QD capsules, fasted patients, normalized from Table 11
[9] = Cycle 1 Day 15, 600 mg QD capsules, fasted patients, Geometric Mean (GeoCV %)
[10] = Cycle 1 Day 15, 600 mg QD capsules, fasted patients, normalized from Table 11
[11] = Cycle 1 Day-Dose Escalation, 100 mg QD capsules, fasted patients, normalized from Table 9
[12] = Cycle 1 Day-Dose Escalation, 200 mg QD capsules, fasted patients, normalized from Table 9
[13] = Cycle 1 Day-Dose Escalation, 300 mg QD capsules, fasted patients, normalized from Table 9
[14] = Cycle 1 Day-Dose Escalation, 450 mg QD capsules, fasted patients, normalized from Table 9
[15] = Cycle 1 Day-Dose Escalation, 600 mg QD capsules, fasted patients, normalized from Table 9
[16] = female, human, plasma, oral, 100 mg, Cycle 1 Day 1, 100 mg QD capsules, fasted patients, Geometric Mean (GeoCV %)

## CN(C)C(=O)/C=C/CNCCOc1ccc(/C(=C(/CC(F)(F)F)c2ccccc2)c2ccc3[nH]nc(F)c3c2)cn1 [H3B-6545, (E)-N,N-dimethyl-4-[2-[5-[(Z)-4,4,4-trifluoro-1-(3-fluoro-1H-indazol-5-yl)-2-phenylbut-1-enyl]pyridin-2-yl]oxyethylamino]but-2-enamide]
100 mg to 600 mg, Cycle 1, Day 1, preliminary PK analyses (FIG. 1)
  plasma exposure versus dose: roughly dose-proportional increase
100 mg to 600 mg, preliminary PK analyses (FIG. 1)
  tmax and half-life, dependence on dose and time: independent of dose and time
100 to 600 mg, as of Apr. 20, 2019 (FIG. 1)
  plasma concentration versus dose: increased with dose
Cycle 1 Day 1, 100 mg QD capsules, fasted patients, Geometric Mean (GeoCV %)
  CL/F: 46.9 (92.2); 6 L/h
Cycle 1 Day 1, 100 mg QD capsules, fasted patients
  Tlag: 0 (0-1); 6 h
Cycle 1 Day 1, 200 mg QD capsules, fasted patients, Geometric Mean (GeoCV %)
  CL/F: 37.9 (68.3); 8 L/h
Cycle 1 Day 1, 200 mg QD capsules, fasted patients
  Tlag: 0 (0-0.6); 12 h
Cycle 1 Day 1, 300 mg QD capsules, fasted patients, Geometric Mean (GeoCV %)
  CL/F: 27.1 (49.1); 10 L/h
Cycle 1 Day 1, 300 mg QD capsules, fasted patients
  Tlag: 0 (0-0.58); 11 h
Cycle 1 Day 1, 450 mg QD capsules, fasted patients, Geometric Mean (GeoCV %)
  CL/F: 19.6 (42.4); 8 L/h
Cycle 1 Day 1, 450 mg QD capsules, fasted patients
  Tlag: 0 (0-0.5); 11 h
Cycle 1 Day 1, 600 mg QD capsules, fasted patients, Geometric Mean (GeoCV %)
  CL/F: 18.3 (68.6); 5 L/h
Cycle 1 Day 1, 600 mg QD capsules, fasted patients
  Tlag: 0 (0-0.5); 7 h
[1]
  CLss/F: 39.1 (56.2); 6 L/h
  RAUC (accumulation ratio of AUC0-24): 1.52 (58.3); 6
  RCmax (accumulation ratio for Cmax): 1.61 (69.3); 6
Cycle 1 Day 15, 100 mg QD capsules, fasted patients
  Tlag: 0 (0-0); 6 h
[2]
  AUC0-24 (per 1 mg of API): 25.6 ng·h/mL/mg
  AUC0-inf (per 1 mg of API): 29.5 ng·h/mL/mg
  AUC0-t (per 1 mg of API): 25.9 ng·h/mL/mg
  Cmax (per 1 mg of API): 2.9 ng/mL/mg
[3]
  CLss/F: 29.1 (52.8); 10 L/h
  RAUC (accumulation ratio of AUC0-24): 1.43 (72.9); 10
  RCmax (accumulation ratio for Cmax): 1.28 (118.2); 10
Cycle 1 Day 15, 200 mg QD capsules, fasted patients
  Tlag: 0 (0-0); 10 h
[4]
  AUC0-24 (per 1 mg of API): 34.4 ng·h/mL/mg
  AUC0-inf (per 1 mg of API): 39.8 ng·h/mL/mg
  AUC0-t (per 1 mg of API): 34.6 ng·h/mL/mg
  Cmax (per 1 mg of API): 3.0 ng/mL/mg
[5]
  CLss/F: 26.2 (50.5); 10 L/h
  RAUC (accumulation ratio of AUC0-24): 1.27 (38.3); 11
  RCmax (accumulation ratio for Cmax): 1.34 (38.3); 11
Cycle 1 Day 15, 300 mg QD capsules, fasted patients
  Tlag: 0 (0-0); 11 h
[6]
  AUC0-24 (per 1 mg of API): 40.0 ng·h/mL/mg
  AUC0-inf (per 1 mg of API): 42.5 ng·h/mL/mg
  AUC0-t (per 1 mg of API): 40.3 ng·h/mL/mg
  Cmax (per 1 mg of API): 4.0 ng/mL/mg
[7]
  CLss/F: 32.1 (52.6); 10 L/h
  RAUC (accumulation ratio of AUC0-24): 0.920 (49); 10
  RCmax (accumulation ratio for Cmax): 1.05 (42.1); 10
Cycle 1 Day 15, 450 mg QD capsules, fasted patients
  Tlag: 0 (0-0); 10 h
[8]
  AUC0-24 (per 1 mg of API): 31.2 ng·h/mL/mg
  AUC0-inf (per 1 mg of API): 38.6 ng·h/mL/mg
  AUC0-t (per 1 mg of API): 31.2 ng·h/mL/mg
  Cmax (per 1 mg of API): 3.1 ng/mL/mg
[9]
  CLss/F: 32.7 (78.1); 3 L/h
  RAUC (accumulation ratio of AUC0-24): 0.712 (31.4); 3
  RCmax (accumulation ratio for Cmax): 0.685 (69.2); 3
Cycle 1 Day 15, 600 mg QD capsules, fasted patients
  Tlag: 0 (0-0); 3 h
[10]
  AUC0-24 (per 1 mg of API): 30.6 ng·h/mL/mg
  AUC0-inf (per 1 mg of API): 66.2 ng·h/mL/mg
  AUC0-t (per 1 mg of API): 31.2 ng·h/mL/mg
  Cmax (per 1 mg of API): 2.8 ng/mL/mg
[11]
  AUC0-24 (per 1 mg of API): 16.8 ng·h/mL/mg
  AUC0-inf (per 1 mg of API): 21.3 ng·h/mL/mg
  AUC0-t (per 1 mg of API): 16.8 ng·h/mL/mg
  Cmax (per 1 mg of API): 1.78 ng/mL/mg
[12]
  AUC0-24 (per 1 mg of API): 23.8 ng·h/mL/mg
  AUC0-inf (per 1 mg of API): 26.37 ng·h/mL/mg
  AUC0-t (per 1 mg of API): 24.1 ng·h/mL/mg
  Cmax (per 1 mg of API): 2.4 ng/mL/mg
[13]
  AUC0-24 (per 1 mg of API): 31.6 ng·h/mL/mg
  AUC0-inf (per 1 mg of API): 36.9 ng·h/mL/mg
  AUC0-t (per 1 mg of API): 31.8 ng·h/mL/mg
  Cmax (per 1 mg of API): 3.0 ng/mL/mg
[14]
  AUC0-24 (per 1 mg of API): 35.9 ng·h/mL/mg
  AUC0-inf (per 1 mg of API): 51.1 ng·h/mL/mg
  AUC0-t (per 1 mg of API): 35.9 ng·h/mL/mg
  Cmax (per 1 mg of API): 3.3 ng/mL/mg
[15]
  AUC0-24 (per 1 mg of API): 37.3 ng·h/mL/mg
  AUC0-inf (per 1 mg of API): 54.8 ng·h/mL/mg
  AUC0-t (per 1 mg of API): 37.2 ng·h/mL/mg
  Cmax (per 1 mg of API): 3.4 ng/mL/mg
[16]
  AUC(0-inf): 2130 ng·h/mL
  Cmax: 178 ng/mL
  half-life: 10.2 h
female, human, plasma, oral, 100 mg, Cycle 1 Day 1, 100 mg QD capsules, fasted patients, Geometric Mean (GeoCV %), read-out: AUC0-24
  AUC(0-t): 1680 ng·h/mL
female, human, plasma, oral, 100 mg, Cycle 1 Day 1, 100 mg QD capsules, fasted patients, Geometric Mean (GeoCV %), read-out: AUC0-t
  AUC(0-t): 1680 ng·h/mL
